Assay results published in US20230227546A1, “TYPE 2 CYTOKINES AS PREDICTORS OF DISEASE SEVERITY AND/OR AS T[…] FOR COVID-19” (priority 2020, published 2023).

Tested on: COVID-19
Type: in vivo, human

For “Dupilumab: anti-human IL4Rα monoclonal antibody that blocks IL-13 and IL-4 signaling; sold as DUPIXENT”, the “Deceased (number of patients) With Concurrent Dupilumab” value (31 patients) was 0, the “Ventilated (number of patients) With Concurrent Dupilumab” value (31 patients) was 0 and the “Hospitalized (number of patients) With Concurrent Dupilumab” value (31 patients, values less than 20 suppressed) was less than 20. The “Odds Ratio, Hospitalized” value (Dupilumab vs matched controls 1:5, conditional logistic regression) was 0.64, the rate of death (compared to matched controls) was “lower rate” and the rate of hospitalization (compared to matched controls) was “lower rate”. For the same substance, the rate of ventilation (compared to matched controls) was “lower rate”.
